Laboratory results from ChEMBL document CHEMBL1944632, “Synthesis, anti-HBV activity and renal cell toxicity evaluation of mixed phosphonate prodrugs of adefovir” (Eur J Med Chem, 2012).

Key:
[1] = Chemical stability of the compound assessed as drug decomposition at 1 mM in phosphate buffer at pH 2 after 24 hrs by HPLC analysis; type: physicochemical; conditions: read-out: Drug degradation
[2] = Nephrotoxicity in human HK2 cells assessed as LDH release at 1 uM measured after 24 hrs; type: toxicity, cell-based; conditions: hk-2, 24 h
[3] = Nephrotoxicity in human HK2 cells assessed as LDH release at 10 uM measured after 24 hrs; type: toxicity, cell-based; conditions: hk-2, 24 h
[4] = Selectivity index, ratio of CC50 for HepG2(2.2.15) infected with HBV DNA to EC50 for Hepatitis B virus infected in human HepG2(2.2.15) cells
[5] = Chemical stability of the compound assessed as drug decomposition at 1 mM in phosphate buffer at pH 7.4 after 24 hrs by HPLC analysis; type: physicochemical; conditions: read-out: Drug degradation
[6] = Cytotoxicity against human HepG2(2.2.15) cells infected with HBV DNA; type: cell-based
[7] = Cytotoxicity against human HK2 cells by MTT assay; type: cell-based, HK-2
Hepatitis B virus [8] = experiment: Antiviral activity against Hepatitis B virus infected in human HepG2(2.2.15) cells assessed as inhibition of viral replication incubated for 2 days followed by wash out measured after 10 days by RT-PCR analysis; type: functional, organism-based
[9] = Nephrotoxicity in human HK2 cells assessed as LDH release at 100 uM measured after 24 hrs; type: toxicity, cell-based; conditions: hk-2, 24 h
[10] = Half life in rat plasma at 0.2 mg after 24 hrs by HPLC analysis; type: ADME
[11] = Ratio of adefovir dipivoxil SI to compound SI for ratio of CC50 for HepG2(2.2.15) infected with HBV DNA to EC50 for Hepatitis B virus infected in human HepG2(2.2.15) cells; type: functional
Hepatitis B virus [12] = experiment: Ratio of adefovir dipivoxil to compound EC50 for Hepatitis B virus infected in human HepG2(2.2.15) cells assessed as inhibition of viral replication incubated for 2 days followed by wash out measured after 10 days by RT-PCR analysis; type: functional

| degraded at 24 h, 1000 µM [1] [%] | degraded at 24 h, 1000 µM [5] [%] | EC50 (Hepatitis B virus [8]) [µM] | half-life [10] [min] | Structure (SMILES) | Activity [2] [%] | Activity [3] [%] | Ratio CC50/EC50 [4] | CC50 [6] [µM] | CC50 [7] [µM] | Activity [9] [%] | Ratio [11] | Ratio EC50 (Hepatitis B virus [12]) |
| --- | --- | --- | --- | --- | --- | --- | --- | --- | --- | --- | --- | --- |
| 14.9 | 12.5 | 0.73 | – | CC[C@H](C)[C@H](N)C(=O)OCCOP(=O)(COCCn1cnc2c(N)ncnc21)OCCCOC(=O)C(C)c1cccc(C(=O)c2ccccc2)c1 (some centres not stated) | 37.85 | 36.92 | 881.92 | 644 | 768 | 43.51 | – | – |
| – | – | 26.9 | – | CC(C(=O)OCCCOP(=O)(COCCn1cnc2c(N)ncnc21)OCCCSC(=O)[C@@H](N)C(C)C)c1cccc(C(=O)c2ccccc2)c1 (some centres not stated) | – | – | 39.01 | 1050 | – | – | – | – |
| – | – | 44.9 | – | CC[C@H](C)[C@H](N)C(=O)SCCCOP(=O)(COCCn1cnc2c(N)ncnc21)OCCCOC(=O)C(C)c1cccc(C(=O)c2ccccc2)c1 (some centres not stated) | – | – | 22.29 | 1000 | – | – | – | – |
| – | – | 29.8 | – | CC(C(=O)OCCCOP(=O)(COCCn1cnc2c(N)ncnc21)OCCCSC(=O)[C@@H](N)Cc1ccccc1)c1cccc(C(=O)c2ccccc2)c1 (some centres not stated) | – | – | 33.47 | 1000 | – | – | – | – |
| 14.7 | 10.3 | 3.34 | 123 | CC(C(=O)OCCCOP(=O)(COCCn1cnc2c(N)ncnc21)OCCOC(=O)[C@@H](N)Cc1ccccc1)c1ccc(-c2ccccc2)c(F)c1 (some centres not stated) | 34.68 | 35.95 | 170.21 | 568 | 906 | 42.71 | – | – |
| – | – | 36.7 | – | CC[C@H](C)[C@H](N)C(=O)SCCCOP(=O)(COCCn1cnc2c(N)ncnc21)OCCCOC(=O)C(C)c1ccc(-c2ccccc2)c(F)c1 (some centres not stated) | – | – | 9.88 | 363 | – | – | – | – |
| – | – | 48.9 | – | CC(C(=O)OCCCOP(=O)(COCCn1cnc2c(N)ncnc21)OCCCSC(=O)[C@@H](N)Cc1ccccc1)c1ccc(-c2ccccc2)c(F)c1 (some centres not stated) | – | – | 4.12 | 202 | – | – | – | – |
| 11.2 | 8.3 | 0.51 | 165 | CC(C(=O)OCCCOP(=O)(COCCn1cnc2c(N)ncnc21)OCCOC(=O)[C@@H](N)C(C)C)c1cccc(C(=O)c2ccccc2)c1 (some centres not stated) | 37.63 | 38.72 | 1697.64 | 866 | 840 | 44.9 | 4 | 2 |

The next lines start with the compound.

| Structure (SMILES) | degraded at 24 h, 1000 µM [1] [%] | degraded at 24 h, 1000 µM [5] [%] | EC50 (Hepatitis B virus [8]) [µM] | half-life [10] [min] | Activity [2] [%] | Activity [3] [%] | Ratio CC50/EC50 [4] | CC50 [6] [µM] | CC50 [7] [µM] | Activity [9] [%] | Ratio [11] | Ratio EC50 (Hepatitis B virus [12]) |
| --- | --- | --- | --- | --- | --- | --- | --- | --- | --- | --- | --- | --- |
| CC(C)Cc1ccc(C(C)C(=O)OCCCOP(=O)(COCCn2cnc3c(N)ncnc32)OCCOC(=O)[C@@H](N)C(C)C)cc1 (some centres not stated) | 9.6 | 7.8 | 8.8 | 90 | 35.41 | 36.25 | 65.56 | 577 | > 1000 | 36.87 | – | – |
| CC[C@H](C)[C@H](N)C(=O)OCCOP(=O)(COCCn1cnc2c(N)ncnc21)OCCCOC(=O)C(C)c1ccc(CC(C)C)cc1 (some centres not stated) | 12.7 | 9.1 | 12.5 | 45 | 36.25 | 36.67 | 39.11 | 488 | > 1000 | 40.6 | – | – |
| CC(C)Cc1ccc(C(C)C(=O)OCCCOP(=O)(COCCn2cnc3c(N)ncnc32)OCCCSC(=O)[C@@H](N)C(C)C)cc1 (some centres not stated) | – | – | 22.7 | – | – | – | 5.37 | 122 | – | – | – | – |
| CC[C@H](C)[C@H](N)C(=O)SCCCOP(=O)(COCCn1cnc2c(N)ncnc21)OCCCOC(=O)C(C)c1ccc(CC(C)C)cc1 (some centres not stated) | – | – | 50 | – | – | – | 3.14 | 157 | – | – | – | – |
| CC[C@H](C)[C@H](N)C(=O)OCCOP(=O)(COCCn1cnc2c(N)ncnc21)OCCCOC(=O)C(C)c1ccc(-c2ccccc2)c(F)c1 (some centres not stated) | 15.3 | 12.6 | 2.26 | 210 | 35.89 | 36.95 | 299.69 | 677 | > 1000 | 40.52 | – | – |
| CC(C)(C)C(=O)OCOP(=O)(COCCn1cnc2c(N)ncnc21)OCOC(=O)C(C)(C)C [ADEFOVIR DIPIVOXIL] | 42.5 | 39.1 | 0.96 | 31.2 | 42.32 | 47.49 | 490.73 | 471 | 488 | 50.02 | – | – |
